From US20240130690A1, “NON-INVASIVE DETERMINATION OF A PHY[…] OF INTEREST IN A SUBJECT FROM SPECTRAL DATA PROCESSED USING A TRAINED MACHINE LEARNING MODEL” (ISBRG CORP., priority 2021, published 2024)

What was measured:
[1] = Analyte composition of a subject after cannabis consumption (illustrative Table 2); format: in vivo, human; conditions: simplified data set to exemplify the method; for Analyte level, intoxicated state: 1 hr after consumption; for Analyte level, post-intoxicated state: 36 hr after consumption
From the text: For example, which is not to be considered limiting, in a THC induced intoxicated sate, a subject may comprise the analyte composition presented in Table 1. It is to be understood that this table presents a simplified data set to exemplify the method described herein. Other analytes, which may include known analytes or ghost analytes, are indicated as analytes A, B . . . C; A′, B′, . . . C′; A″, B″ . . . C″. These other analytes may increase or decrease in response to, or that are correlated with, the physiological condition and they may be included in this analysis.
In this example, the result may be considered positive for a THC-induced intoxicated state if the Index is greater than a preset value which is determined based on an analysis of the analytes determined in subjects who were exposed to a control treatment, or a range of THC under controlled conditions, for example an Index value of (2+A)/(C+ . . . +C) may be an indication of a positive result for the state of THC-induced intoxication.

[2] = cited from earlier work

CCCCCc1cc(O)c2c(c1)OC(C)(C)C1CCC(CO)=CC21 (stereo not shown) [11-OH-THC, 11-hydroxy THC]
Analyte level, intoxicated state [1]: 5 ng/mL | Analyte level, post-intoxicated state [1]: 2 ng/mL

CCCCCc1cc(O)c2c(c1)OC(C)(C)[C@@H]1CCC(C)=C[C@@H]21 [THC, delta-9-tetrahydrocannabinol]
Analyte level, intoxicated state [1]: 78 ng/mL | Analyte level, post-intoxicated state [1]: 8 ng/mL | residual THC in serum ([2]; chronic users of marijuana, detected for 24 to 48 hours or longer, serum): 1.0 to 6.4 ng/mL | residual THC in whole blood ([2]; chronic users of marijuana, detected for 24 to 48 hours or longer, whole blood): 0.5 to 3.2 ng/mL | time of THC peak after inhaling ([2]; smoked marijuana): first few minutes | THC level remaining ([2]; smoked marijuana, for 8 hours or more): 1 to 2 ng/mL

CCCCCc1cc(O)c2c(c1)OC(C)(C)[C@@H]1CCC(C(=O)O)=C[C@@H]21 [THC-COOH, 11-nor-9-carboxy-THC]
Analyte level, intoxicated state [1]: 5 ng/mL | Analyte level, post-intoxicated state [1]: 11 ng/mL
